Experimental findings from patent publication US11155557B2, “Pyrazolopyrimidine compounds and methods of use thereof” (Genentech, Inc., priority 2016, dated 2021) are described below.

Read-outs that look alike come from different tables or passages of the source.

Experiment [1] has as its target isolated recombinant JAK1 kinase domain (Homo sapiens (Human), UniProt P23458). As to the kind of experiment: JAK1 enzyme assay (Caliper LabChip, Ki). Type of experiment: biochemical. The procedure:
The activity of the isolated recombinant JAK1 and JAK2 kinase domain was measured by monitoring phosphorylation of a peptide derived from JAK3 ([…] fluorescently labeled on the N-terminus with 5-carboxyfluorescein) using the Caliper LabChip R technology (Caliper Life Sciences, Hopkinton, Mass.).

Experiment [2] relates to JAK1-dependent STAT6 phosphorylation in BEAS-2B human bronchial epithelial cells. Briefly: JAK1 pathway assay: IL-13 stimulated STAT6 phosphorylation in BEAS-2B cells. Type of experiment: cell-based. To be noted: Homo sapiens, BEAS-2B, BEAS-2B cells, IL-13 stimulation; read-out: IL-13 p-STAT6 BEAS-2B IC50. The gist of the method:
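BEAS-2B bronchial epithelial cells plated one day before, run in complete growth medium. Phospho-STAT6 in lysates measured by MesoScale Discovery; EC50 reported.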

The target of experiment [3] is isolated recombinant JAK2 kinase domain (Homo sapiens (Human), UniProt O60674). Briefly: JAK2 enzyme assay (Caliper LabChip, Ki).
Sequence of isolated recombinant JAK2 kinase domain (O60674 849-1124): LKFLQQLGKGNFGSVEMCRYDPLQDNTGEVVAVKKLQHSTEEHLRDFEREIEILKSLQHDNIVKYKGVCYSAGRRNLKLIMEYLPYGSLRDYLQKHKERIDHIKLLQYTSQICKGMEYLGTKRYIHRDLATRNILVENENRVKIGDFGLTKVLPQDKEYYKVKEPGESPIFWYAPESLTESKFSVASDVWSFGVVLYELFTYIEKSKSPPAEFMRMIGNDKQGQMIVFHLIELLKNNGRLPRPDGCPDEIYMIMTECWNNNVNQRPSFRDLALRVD

Sequence of isolated recombinant JAK1 kinase domain (P23458 875-1153): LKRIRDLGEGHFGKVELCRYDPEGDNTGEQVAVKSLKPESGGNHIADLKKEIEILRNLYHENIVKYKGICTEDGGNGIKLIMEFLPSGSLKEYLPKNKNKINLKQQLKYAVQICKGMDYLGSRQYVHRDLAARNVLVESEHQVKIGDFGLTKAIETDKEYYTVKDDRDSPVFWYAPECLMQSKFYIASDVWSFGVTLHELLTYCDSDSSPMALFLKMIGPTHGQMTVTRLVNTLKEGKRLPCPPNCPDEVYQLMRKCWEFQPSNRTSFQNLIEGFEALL

Broadly, the Ki is the dissociation constant of the complex between target and ligand, obtained from inhibition or displacement. In general, IC50 refers to the concentration needed to halve the response being measured. Consider `CC1(C)COc2cc(OC(F)F)c(-c3n[nH]cc3NC(=O)c3cnn4cccnc34)cc2C1=O` [Example 115, N-[3-[7-(difluoromethoxy)-3,3-dimethyl-4-oxo-chroman-6-yl]-1H-pyrazol-4-yl]pyrazolo[1,5-a]pyrimidine-3-carboxamide], for which the results for the inhibition constant (Ki) in experiment [1] and in experiment [3] (read-out: JAK2 Ki) were 0.91 nM and 0.36 nM, respectively. Besides, the IC50 in experiment [2] was determined as 55 nM.
The corresponding values for `CNC(=O)Cn1cc(NC(=O)c2cnn3cccnc23)c(-c2cc3c(cc2OC(F)F)NCCO3)n1` [Example 116, N-[3-[6-(difluoromethoxy)-3,4-dihydro-2H-1,4-benzoxazin-7-yl]-1-[2-(methylamino)-2-oxo-ethyl]pyrazol-4-yl]pyrazolo[1,5-a]pyrimidine-3-carboxamide] are 0.25 nM, 0.4 nM and 42 nM.
On to `CNC(=O)Cn1cc(NC(=O)c2cnn3cccnc23)c(-c2cc3c(cc2OC(F)F)NCCS3)n1` [Example 117, N-[3-[6-(difluoromethoxy)-3,4-dihydro-2H-1,4-benzothiazin-7-yl]-1-[2-(methylamino)-2-oxo-ethyl]pyrazol-4-yl]pyrazolo[1,5-a]pyrimidine-3-carboxamide], for which the Ki in experiment [1] and in experiment [3] (read-out: JAK2 Ki) was 0.1 nM throughout. Moreover, the IC50 in experiment [2] turned out to be 24 nM.
With `C[C@@H]1CNc2cc(OC(F)F)c(-c3n[nH]cc3NC(=O)c3cnn4cccnc34)cc2O1` [Example 118, N-[3-[(2R)-6-(difluoromethoxy)-2-methyl-3,4-dihydro-2H-1,4-benzoxazin-7-yl]-1H-pyrazol-4-yl]pyrazolo[1,5-a]pyrimidine-3-carboxamide], the Ki is 0.68 nM in experiment [1] and 0.23 nM in experiment [3] (read-out: JAK2 Ki). Also, the IC50 in experiment [2] was 37 nM.
As for `CNC(=O)Cn1cc(NC(=O)c2cnn3cccnc23)c(-c2cc3c(cc2OC(F)F)SCCO3)n1` [Example 119, N-[3-[6-(difluoromethoxy)-2,3-dihydro-1,4-benzoxathiin-7-yl]-1-[2-(methylamino)-2-oxo-ethyl]pyrazol-4-yl]pyrazolo[1,5-a]pyrimidine-3-carboxamide], the inhibition constant (Ki) in experiment [1] worked out at 1.01 nM; in experiment [3] (read-out: JAK2 Ki) it was 1.93 nM. Also, in experiment [2], the concentration for half-maximal inhibition (IC50) is 40 nM.
For the compound `CN(C)C(=O)Cn1cc(NC(=O)c2cnn3cccnc23)c(-c2cc3c(cc2OC(F)F)SCCO3)n1` [Example 120, N-[3-[6-(difluoromethoxy)-2,3-dihydro-1,4-benzoxathiin-7-yl]-1-[2-(dimethylamino)-2-oxo-ethyl]pyrazol-4-yl]pyrazolo[1,5-a]pyrimidine-3-carboxamide], the Ki in experiment [1] turned out to be 0.63 nM; in experiment [3] (read-out: JAK2 Ki), 2.54 nM. In addition, the IC50 in experiment [2] came out at 46 nM.
As to `CC[C@@H](O)Cn1cc(NC(=O)c2cnn3cccnc23)c(-c2cc3c(cc2OC(F)F)NCCO3)n1` [Example 121, N-[3-[6-(difluoromethoxy)-3,4-dihydro-2H-1,4-benzoxazin-7-yl]-1-[(2R)-2-hydroxybutyl]pyrazol-4-yl]pyrazolo[1,5-a]pyrimidine-3-carboxamide], the figures for the Ki in experiment [1] and in experiment [3] were 0.41 nM and 0.45 nM, respectively. The IC50 in experiment [2] turned out to be 38 nM.
Turning to `CC[C@H](O)Cn1cc(NC(=O)c2cnn3cccnc23)c(-c2cc3c(cc2OC(F)F)NCCO3)n1` [Example 122, N-[3-[6-(difluoromethoxy)-3,4-dihydro-2H-1,4-benzoxazin-7-yl]-1-[(2S)-2-hydroxybutyl]pyrazol-4-yl]pyrazolo[1,5-a]pyrimidine-3-carboxamide], the figures for the Ki in experiment [1] and in experiment [3] were 0.28 nM and 0.25 nM, respectively. Moreover, in experiment [2], the IC50 worked out at 32 nM.
`O=C(Nc1cn(Cc2ncco2)nc1-c1cc2c(cc1OC(F)F)NCCO2)c1cnn2cccnc12` [Example 123, N-[3-[6-(difluoromethoxy)-3,4-dihydro-2H-1,4-benzoxazin-7-yl]-1-(oxazol-2-ylmethyl)pyrazol-4-yl]pyrazolo[1,5-a]pyrimidine-3-carboxamide]: the Ki in experiment [1] was determined as 0.36 nM; in experiment [3] (read-out: JAK2 Ki), 0.28 nM. Moreover, in experiment [2], the IC50 worked out at 24 nM.
